The text below walks through data of patent US8921372B2, “Inhibitors of hepatitis C virus” (Theravance Biopharma R&D IP, LLC, priority 2010, dated 2014).

Where only a bound is given, the exact number is not on record here.

Assay [1] deals with HCV genotype 1b replicon cell line (APC144; Huh7 cell background). The assay can be described thus: HCV Genotype 1b Replicon Assay (Renilla luciferase readout). The format is cell-based. To be noted: Hepatitis C virus, Huh-7; read-out: Genotype 1b (pEC50 class, HCV genotype 1b replicon assay) (converted). An excerpt:
Assay 1: HCV Genotype 1b Replicon Assay
The HCV genotype 1b replicon cell line was obtained from Apath LLC (Brooklyn, N.Y.) (APC144; Huh7 cell background). This subgenomic replicon contains the N-terminus of the HCV core protein fused to the neomycin-resistance selectable marker. The EMCV IRES lies downstream and drives expression of humanized Renilla luciferase fused to the non-structural proteins NS3-NS5B. This cell line was used to determine compound potency using the luciferase activity readout as a measurement of compound inhibition of replicon levels.
(§1) Cells were grown at 37° C. in a 5% CO2 humidified incubator in DMEM (Invitrogen) with 10% FBS (HyClone), 1×NEAA (Invitrogen), 1× Pen-Strep (Invitrogen), and 500 μg/mL G418 (Invitrogen). On day 1 of the assay, cells were plated at 10,000 cells/well in white 96-well tissue culture plates (Costar) in 200 μL media lacking G418. Four hours later, once the cells have adhered, the media was removed and replaced with media (no G418) containing dose-responses of test compounds. Compounds were initially diluted in DMSO and then diluted another 200× in media to bring the final DMSO concentration down to 0.5%. The cells were incubated with test compounds for 48 hours. At the end of the incubation period, media and compound were removed from the plates and the luciferase activity was determined using Promega Renilla-Glo reagents.
To analyze the data, the luciferase activity was plotted vs. the compound concentration, and EC50 values were determined from a 4-parameter robust fit model with the GraphPad Prism software package (GraphPad Software, Inc., San Diego, Calif.). Results are expressed as the negative decadic logarithm of the EC50 value, pEC50.
Test compounds having a higher pEC50 value in this assay show greater inhibition of HCV genotype 1b replication.
In general terms: Replicon systems follow genome replication, usually without infectious particles.

The test system of assay [2] is HCV genotype 1a replicon cell line (APC89; Huh7.5 cell background). Kind of assay: HCV Genotype 1a Replicon Assay (NS3-specific protease activity readout). Type of assay: cell-based. To be noted: Hepatitis C virus, 72 hour incubation, read-out: Genotype 1a (pEC50 class, HCV genotype 1a replicon assay) (converted). As for the experimental part:
Assay 2: HCV Genotype 1a Replicon Assay
The HCV genotype 1a replicon cell line was obtained from Apath LLC (APC89; Huh7.5 cell background). This subgenomic replicon contains the N-terminus of the HCV core protein fused to the neomycin-resistance selectable marker. The EMCV IRES lies downstream and drives expression of the non-structural proteins NS3-NS5B. Compound potencies were determined using the NS3-specific protease activity in lysates as a measurement of compound inhibition of replicon levels.
as §1, with “850” for “500”, “15,000” for “10,000”, “black” for “white”, “had” for “have”, “48 or 72” for “48”, “plates.” for “plates and the luciferase activity was determined using Promega Renilla-Glo reagents.”
To determine the NS3-specific protease activity in lysates, the cells were lysed at room temperature in 50 μL/well of 50 mM Hepes pH 7.5, 150 mM NaCl, 15% Glycerol, 0.15% Triton X-100, 10 mM DTT for 20 minutes with shaking. 50 μL of an NS3/4a protease-specific FRET substrate (Anaspec RET S1 Cat#22991) was then added to the wells at a final concentration of 15 μM. The plates were incubated at 37° C. for 20 minutes, which corresponds to a timepoint at which the protease activity is still in the linear phase. Protease activity was determined by measuring fluorescence (Excitation: 340 nm; Emission: 509 nm).
To analyze the data, the fluorescence was plotted vs. the compound concentration, and EC50 values were determined from a 4-parameter robust fit model using GraphPad Prism software.

With `COC(=O)N[C@H](C(=O)N1CCC[C@H]1c1nc(-c2ccc(-c3ccc(NC(=O)c4ccc(N5CCN(C(=O)[C@]6(C)CCCN6C(C)=O)C[C@H]5C)nc4)cc3C)cc2)c[nH]1)C(C)C` [Example 15, [(S)-1-((S)-2-{5-[4′-({6-[(R)-4-((S)-1-Acetyl-2-methyl-pyrrolidine-2-carbonyl)2-methyl-piperazin-1-yl]-pyridine-3-carbonyl}-amino)-2′-methyl-biphenyl-4-yl]-1H-imidazol-2-yl}-pyrrolidine-1-carbonyl)-2-methyl-propyl]-carbamic acid methyl ester], the EC50 in assay [1] and in assay [2] was < 0.1 nM each time.

Take `COC(=O)N[C@H](C(=O)N1CCC[C@H]1c1nc(-c2ccc(-c3ccc(NC(=O)c4ccc(N5CCN(C(=O)C6CC6)C[C@H]5C)nc4)cc3C)cc2)c[nH]1)C(C)C` [Example 17]: the EC50 is < 0.1 nM in assay [1] and 0.1 to 1 nM in assay [2].

With `CNC(=O)N1CCN(c2ccc(C(=O)Nc3ccc(-c4ccc(-c5c[nH]c([C@@H]6CCCN6C(=O)[C@@H](NC(=O)OC)C(C)C)n5)cc4)c(C)c3)cn2)[C@H](C)C1` [Example 18], the values for the EC50 in assay [1] and in assay [2] were < 0.1 nM and 0.1 to 1 nM, respectively.

Take `COC(=O)N[C@H](C(=O)N1CCC[C@H]1c1nc(-c2ccc(-c3ccc(NC(=O)c4ccc(N5CCN(C(=O)c6c[nH]cn6)C[C@H]5C)nc4)cc3C)cc2)c[nH]1)C(C)C` [Example 19]: the EC50 in assay [1] is < 0.1 nM; in assay [2], 0.1 to 1 nM.

For the molecule `CCOc1cc(NC(=O)c2ccc(N3CCN(C(=O)[C@]4(C)CCCN4C(=O)[C@@H](NC(=O)OC)C(C)C)C[C@H]3C)nc2)ccc1-c1ccc(-c2c[nH]c([C@@H]3CCCN3C(=O)[C@@H](NC(=O)OC)C(C)C)n2)cc1` [Example 21, [(S)-1-((S)-2-{4-[2′-Ethoxy-4′-({6-[(R)-4-((S)-1-{(S)-2-methoxycarbonylamino-3-methyl-butyryl}-2-methyl-pyrrolidine-2-carbonyl)-2-methyl-piperazin-1-yl]-pyridine-3-carbonyl}-amino)-biphenyl-4-yl]-1H-imidazol-2-yl}-pyrrolidine-1-carbonyl)-2-methyl-propyl]-carbamic acid methyl ester], the EC50 in assay [1] and in assay [2] was < 0.1 nM throughout.

Turning to `COC(=O)N[C@H](C(=O)N1CCC[C@H]1c1nc(-c2ccc(-c3ccc(NC(=O)c4ccc(N5CCN(C(=O)[C@H]6CC6(C)C)C[C@H]5C)nc4)cc3OC(F)(F)F)cc2)c[nH]1)C(C)C` [Example 25, [(S)-1-((S)-2-{5-[4′-({6-[(R)-4-((S)-2,2-Dimethyl-cyclopropanecarbonyl)-2-methyl-piperazin-1-yl]-pyridine-3-carbonyl}-amino)-2′-trifluoromethoxy-biphenyl-4-yl]-1H-imidazol-2-yl}-pyrrolidine-1-carbonyl)-2-methyl-propyl]-carbamic acid methyl ester], the EC50 in assay [1] and in assay [2] was < 0.1 nM throughout.

For `CNC(=O)N1CCN(c2ccc(C(=O)Nc3ccc(-c4ccc(-c5c[nH]c([C@@H]6CCCN6C(=O)[C@@H](NC(=O)OC)C(C)C)n5)cc4)c(OC(F)(F)F)c3)cn2)[C@H](C)C1` [Example 26], the EC50 in assay [1] and in assay [2] was < 0.1 nM in each case.

`COCC(=O)N1CCC[C@@]1(C)C(=O)N1CCN(c2ccc(C(=O)Nc3cc(OC(F)(F)F)c(-c4ccc(-c5c[nH]c([C@@H]6CCCN6C(=O)[C@@H](NC(=O)OC)C(C)C)n5)cc4)cc3OC)cn2)[C@H](C)C1` [Example 27-31]: the EC50 in assay [1] and in assay [2] was < 0.1 nM each time.

For the molecule `COC(=O)N[C@H](C(=O)N1CCC[C@H]1c1nc(-c2ccc(-c3cc(F)c(NC(=O)c4ccc(N5CCN(C(=O)c6c[nH]cn6)C[C@H]5C)nc4)cc3OC(F)(F)F)cc2)c[nH]1)C(C)C` [Example 27-33], the EC50 in assay [1] and in assay [2] was < 0.1 nM throughout.

As to `COC(=O)N[C@H](C(=O)N1CCC[C@H]1c1nc(-c2ccc(-c3cc(F)c(NC(=O)c4ccc(N5CCN(C(=O)c6cc[nH]n6)C[C@H]5C)nc4)cc3OC(F)(F)F)cc2)c[nH]1)C(C)C` [Example 27-34], the EC50 in assay [1] and in assay [2] was < 0.1 nM throughout.

For the molecule `COC(=O)N[C@H](C(=O)N1CCC[C@H]1c1nc(-c2ccc(-c3cc(F)c(NC(=O)c4ccc(N5CCN(C(=O)Cn6cccn6)C[C@H]5C)nc4)cc3OC(F)(F)F)cc2)c[nH]1)C(C)C` [Example 27-36], the EC50 in assay [1] and in assay [2] was < 0.1 nM in each case.

Regarding `COC(=O)N[C@H](C(=O)N1CCC[C@H]1c1nc(-c2ccc(-c3cc(F)c(NC(=O)c4ccc(N5CCN(C(=O)CNC(C)=O)C[C@H]5C)nc4)cc3OC(F)(F)F)cc2)c[nH]1)C(C)C` [Example 27-37], the EC50 in assay [1] and in assay [2] was < 0.1 nM in each case.

For the molecule `COCCNC(=O)N1CCN(c2ccc(C(=O)Nc3cc(OC(F)(F)F)c(-c4ccc(-c5c[nH]c([C@@H]6CCCN6C(=O)[C@@H](NC(=O)OC)C(C)C)n5)cc4)cc3F)cn2)[C@H](C)C1` [Example 27-38], the EC50 in assay [1] and in assay [2] was < 0.1 nM in each case.

`COC(=O)N[C@H](C(=O)N1CCC[C@H]1c1nc(-c2ccc(-c3cc(F)c(NC(=O)c4ccc(N5CCN(C(=O)[C@]6(C)CCCN6C(=O)OC)C[C@H]5C)nc4)cc3OC(F)(F)F)cc2)c[nH]1)C(C)C` [Example 27-42]: the EC50 in assay [1] and in assay [2] was < 0.1 nM throughout.

In the case of `COC(=O)N[C@H](C(=O)N1CCC[C@H]1c1nc(-c2ccc(-c3cc(F)c(NC(=O)c4ccc(N5CCN(C(=O)[C@]6(C)CCCN6C(=O)NC(C)C)C[C@H]5C)nc4)cc3OC(F)(F)F)cc2)c[nH]1)C(C)C` [Example 27-43], the EC50 in assay [1] and in assay [2] was < 0.1 nM in each case.

`COC(=O)N[C@H](C(=O)N1CCC[C@H]1c1nc(-c2ccc(-c3cc(F)c(NC(=O)c4ccc(N5CCN(C(=O)[C@]6(C)CCCN6C(=O)[C@@H](N)C(C)C)C[C@H]5C)nc4)cc3OC(F)(F)F)cc2)c[nH]1)C(C)C` [Example 27-44]: the EC50 in assay [1] and in assay [2] was < 0.1 nM in each case.

For the molecule `COCCNC(=O)N1CCC[C@@]1(C)C(=O)N1CCN(c2ccc(C(=O)Nc3cc(OC(F)(F)F)c(-c4ccc(-c5c[nH]c([C@@H]6CCCN6C(=O)[C@@H](NC(=O)OC)C(C)C)n5)cc4)cc3F)cn2)[C@H](C)C1` [Example 27-45], the EC50 in assay [1] and in assay [2] was < 0.1 nM each time.

Turning to `COCC(=O)N1CCC[C@@]1(C)C(=O)N1CCN(c2ccc(C(=O)Nc3cc(OC(F)(F)F)c(-c4ccc(-c5c[nH]c([C@@H]6CCCN6C(=O)[C@@H](NC(=O)OC)C(C)C)n5)cc4)cc3F)cn2)[C@H](C)C1` [Example 27-46], the EC50 in assay [1] and in assay [2] was < 0.1 nM throughout.

Turning to `CNC(=O)N1CCC[C@@]1(C)C(=O)N1CCN(c2ccc(C(=O)Nc3cc(OC(F)(F)F)c(-c4ccc(-c5c[nH]c([C@@H]6CCCN6C(=O)[C@@H](NC(=O)OC)C(C)C)n5)cc4)cc3F)cn2)[C@H](C)C1` [Example 27-47], the EC50 in assay [1] and in assay [2] was < 0.1 nM in each case.

For the molecule `COC(=O)N[C@H](C(=O)N1CCC[C@H]1c1nc(-c2ccc(-c3cc(F)c(NC(=O)c4ccc(N5CCN(C(=O)[C@]6(C)CCCN6C(=O)CO)C[C@H]5C)nc4)cc3OC(F)(F)F)cc2)c[nH]1)C(C)C` [Example 27-48], the EC50 in assay [1] and in assay [2] was < 0.1 nM in each case.

`COC(=O)N[C@H](C(=O)N1CCC[C@H]1c1nc(-c2ccc(-c3cc(F)c(NC(=O)c4ccc(N5CCN(C(=O)[C@]6(C)CCCN6C(=O)CN(C)C)C[C@H]5C)nc4)cc3OC(F)(F)F)cc2)c[nH]1)C(C)C` [Example 27-50]: the EC50 in assay [1] and in assay [2] was < 0.1 nM each time.
